Data reported in patent US9492398B2, “Nanocapsulation of essential oils for preventing or curing infectious diseases alone or with an antibiotic” (Eydo Pharma, priority 2011, dated 2016).
≈ marks a conversion by molar mass, not a printed value. Like-named read-outs stand apart in the source and are kept apart here.

Columns and labels:
[1] = from the literature; cited from earlier work
S. aureus ATCC25923 = experiment: Minimal inhibitory concentration on Mueller Hinton Agar (Example 13); assay type: cell-based, Staphylococcus aureus; conditions: Staphlococcus aureus
Procedure: (§1) Mueller Hinton Agar was used in a standardized disk diffusion procedure for determining the susceptibility of rapidly growing aerobic microorganisms to antimicrobial agents.
(§2) The test to evaluate the increase in resistance was carried out with a concentration of the product of two times the Minimal Inhibitory Concentration (MIC).

SARM S. aureus ATCC25923 [2] = experiment: as above; assay type: cell-based, Staphylococcus aureus; conditions: Staphylococcus aureus
Procedure: as §1, §2

SARM S. aureus ATCC25923 [3] = experiment: In vitro emergence of resistance over passages; assay type: cell-based, Staphylococcus aureus
Procedure: as §1, §2

## CN(C)[C@@H]1C(O)=C(C(N)=O)C(=O)[C@@]2(O)C(O)=C3C(=O)c4c(O)ccc(Cl)c4[C@@H](O)[C@H]3C[C@@H]12 [Demeclocyclin]
[1]
  LD50 in mice by intraperitoneal injection: 120 mg/kg

## CC[C@H]1OC(=O)[C@H](C)[C@@H](O[C@H]2C[C@@](C)(OC)[C@@H](O)[C@H](C)O2)[C@H](C)[C@@H](O[C@@H]2O[C@H](C)C[C@H](N(C)C)[C@H]2O)[C@](C)(O)C[C@@H](C)C(=O)[C@H](C)[C@@H](O)[C@]1(C)O [Erythromycin]
[1]
  LD50 in mice by intraperitoneal injection: 280 mg/kg

## CO[C@@H]1[C@@H](O[C@@H]2O[C@H](C)[C@@H](O[C@H]3C[C@@](C)(O)[C@@H](OC(=O)CC(C)C)[C@H](C)O3)[C@H](N(C)C)[C@H]2O)[C@@H](CC=O)C[C@@H](C)[C@@H](O)/C=C/C=C/C[C@@H](C)OC(=O)C[C@H]1OC(C)=O [Josamycin]
[1]
  LD50 in mice by intraperitoneal injection: 780 mg/kg

## CCN1CCN(C(=O)N[C@@H](C(=O)N[C@@H]2C(=O)N3[C@@H]2SC(C)(C)[C@@H]3C(=O)O)c2ccccc2)C(=O)C1=O [Piperacillin]
[1]
  LD50 in mice by intraperitoneal injection: 9970 mg/kg

## CO[C@H]1/C=C/O[C@@]2(C)Oc3c(C)c(O)c4c(O)c(c(/C=N/N5CCN(C)CC5)c(O)c4c3C2=O)NC(=O)/C(C)=C\C=C\[C@H](C)[C@H](O)[C@@H](C)[C@@H](O)[C@@H](C)[C@H](OC(C)=O)[C@@H]1C [Rifampicin]
S. aureus ATCC25923
  2 times the minimal inhibitory concentration: 0.16 mg/L
SARM S. aureus ATCC25923 [2]; ATCC25923, read-out: Minimal inhibitory concentration
  MIC: 8 ng/mL (≈ 9.72 nM)
SARM S. aureus ATCC25923 [2]; ATCC25923, read-out: Minimal inhibitory concentration/4
  MIC: 2 ng/mL (≈ 2.43 nM)
SARM S. aureus ATCC25923 [3]; Staphylococcus aureus
  appearance of resistance, passage: 6
SARM S. aureus ATCC25923 [3]; after appearance of resistance
  concentration at which inhibitory activity reappeared: 0.38 ml/I
  times the initial minimal inhibitory concentration: 47.5
